# Measurements: article PMC9412534, “Diindolylmethane Derivatives: New Selective Blockers for T-Type Calcium Channels” (Membranes, 2022)
# Like-named read-outs stand apart in the source and are kept apart here.
# Columns and labels:
# CaV3.3 = CaV3.3 (Homo sapiens, UniProt Q9P0X4); experiment: T-type calcium channel window current FLIPR assay, CaV3.3; assay type: cell-based
# Protocol: (§1) The human embryonic kidney 293 (HEK 293) cell lines (from Emmanuel Bourinet, Montpellier, France) stably expressing CaV3.2 or CaV3.3 were cultured under 5% carbon dioxide at 37 °C in Dulbecco’s Modified Eagle Medium (DMEM) Glutamax (Gibco, Life Technologies, Carlsbad, CA, USA) supplemented with 10% (v/v) fetal bovine serum (FBS), 100 U/mL penicillin, 100 μg/mL streptomycin (Gibco, Life Technologies, Carlsbad, CA, USA), and 750 μg/mL geneticin (G418) (Gibco, Life Technologies). The Chinese Hamster Ovary (CHO) cell lines (Emmanuel Bourinet, Montpellier, France) expressing CaV3.1 were cultured under 5% carbon dioxide at 37 °C in Alpha Minimum Essential Media (MEM) Glutamax (Gibco, Life Technologies), supplemented with 10% (v/v) fetal bovine serum (FBS) and 300 μg/mL geneticin (G418) (Gibco, Life Technologies). The human neuroblastoma SH-SY5Y cells (Victor Diaz, Goettingen, Germany) were cultured under 5% carbon dioxide at 37 °C in RPMI 1640 antibiotic-free medium (Invitrogen, Carlsbad, CA, USA), supplemented with 15% FBS and 2 mM GlutaMAX™ (Invitrogen). D-PBS (Gibco, Life Technologies) was used to wash the cells, and 0.25% Trypsin-EDTA (Gibco, Life Technologies) was used to detach cells from the flask surface. They were split in a ratio of 1:5 (ideally 1000 cells/cm^2) when they reached 70–80% confluence (every 2–3 days). Transiently transfected CaV3.1 HEK293 T cells were used in FLIPR Assays. HEK 293 T cells were cultured under 5% carbon dioxide at 37 °C in DMEM supplemented with 10% (v/v) FBS. D-PBS was used to wash the cells, and 0.25% Trypsin-EDTA was used to detach cells from the flask surface. The cells were split and seeded at 6 million cells per T175 flask, to reach 70–80% confluence after 24 h. The next day, 12 μg DNA of human CaV3.1 was incubated in 900 μL serum-free DMEM with 36 μL FuGENE HD transfection reagent (Promega Corporation, Madison, WI, USA) (1:3 DNA/Fugene ratio) for 20 min, and then the mixture was added into the cell flask slowly, drop by drop. After the transfection, the cells were cultured under 5% carbon dioxide at 37 °C for 24 h and then moved to a 28 °C incubator.
# HEK 293 cells stably expressing CaV3.2 or CaV3.3 were seeded into 384-well black wall clear bottom plates (Corning) at a density of 30,000 cells per well. Transiently transfected CaV3.1HEK293 T cells were seeded into 384-well black wall clear bottom plates at a density of 60,000 cells per well. Once the cells reached 90–95% confluence after 24 h, the media were removed from the wells and replaced with 20 μL of 10% calcium 4 dye (Molecular Devices, Sunnyvale, CA, USA) in HBSS-HEPES (containing 5 mM KCl, 10 mM HEPES, 140 mM NaCl, 10 mM glucose, and 0.5 mM CaCl2, pH 7.4) with 0.1% bovine serum albumin (BSA). The cells were incubated for 30 min at 37 °C in the presence of 5% carbon dioxide. Each well on the reagent plates for the first addition contained 15 μL different concentrations of compounds dissolved in HBSS-HEPES containing 0.1% BSA and <0.5% DMSO and was incubated for 20 min after loaded. Positive and negative controls contained 15 μL of HBSS-HEPES (0.1% BSA) alone. The plates were placed in the FLIPR^TETRA (Molecular Devices, Sunnyvale, CA, USA) programmed to measure maximum fluorescence intensity following a second addition of the agonist 5 mM CaCl2. The fluorescence readings were recorded and converted as described previously, and HBSS-HEPES (0.1% BSA) was used in the second addition as a negative control.
# CaV1 = experiment: HVA L-type calcium channel FLIPR assay in SH-SY5Y cells; assay type: cell-based, human; conditions: 1 µM CVID present, n = 3, read-out: IC50 CaV1 (HVA CaVs)
# Protocol: as §1
# SH-SY5Y cells were seeded into 384-well black wall clear bottom plates at a density of 15,000 cells per well, resulting in 90–95% confluence after 24 h. The media were then removed from the wells and replaced with 20 μL of 10% calcium 4 dye (Molecular Devices) in physiological salt solution (PSS) (containing 5.9 mM KCl, 1.4 mM MgCl2, 10 mM HEPES, 1.2 mM NaH2 PO4, 5 mM NaHCO3, 140 mM NaCl, 11.5 mM glucose, and 1.8 mM CaCl2, pH 7.4) with 0.1% BSA. As reported, for N-type calcium channel FLIPR assays the cells were pre-incubated with 10 µM nifedipine added in the dye to ensure full inhibition of L-type calcium responses. For L-type calcium channel FLIPR assays, the cells were pre-incubated with 1 µM CVID added in the dye to ensure full inhibition of N-type calcium responses. Positive control on the first reagent plate contained 15 μL of PSS (0.1% BSA), whereas PSS (0.1% BSA) containing 1 µM CVID and 10 µM nifedipine (final concentration) was used as a negative control. The fluorescence readings were recorded and converted as described previously, and agonist containing 90 mM KCl + 5 mM CaCl2 was used in the second addition.
# MCF-7 cells = experiment: Cell viability MTT assay, MCF-7; assay type: cell-based, human; conditions: for viability at 50 µM: MCF7, 50 µM, n = 4; for IC50: n = 3
# Protocol: (§2) Human breast cancer cell line MCF-7 and T-47D, lung cancer cell line A549, and colon cancer cell line HT-29 were cultured under 5% carbon dioxide at 37 °C in DMEM Glutamax (Gibco, Life Technologies) supplemented with 10% (v/v) FBS. They were split in a ratio of 1:3–1:6 (ideally 2–4 × 10,000 cells/cm^2) when they reached 70–80% confluence using 0.25% Trypsin-EDTA. For cell viability MTT assay, cells were seeded into 96-well clear bottom culture plates (Corning, Lowell, MA, USA) at a density of 5 × 10^3 cells/well and settled at 37 °C for 24 h.
# (§3) Seeded cells were treated with various concentrations of compounds for desired time period (24, 48 and 72 h). After the treatments, the media were removed from each well, and replaced with 25 μL of serum-free media and 25 μL of MTT Reagent (cat. no., ab211091; Abcam, Cambridge, MA, USA). The plate was then incubated at 37 °C for 3 h, and 75 μL of MTT Solvent (cat. no., ab211091; Abcam) was added into each well after incubation. The absorbance was evaluated at 590 nm. Cell-wells treated with 0.1% DMSO were used as positive control and no cell-wells were used as background control.
# A549 cells = experiment: Cell viability MTT assay, A549; assay type: cell-based, human; conditions: for viability at 50 µM: A549, 50 µM, n = 4; for IC50: n = 3
# Protocol: as §2, §3
# [1] = FLIPR window current, n = 3, read-out: IC50 CaV3.3 (LVA CaVs)
# [2] = FLIPR, one separate experiment in quadruplicate (n = 4), read-out: IC50 of representative concentration-response curve, CaV3.3 window current
# [3] = Homo sapiens, MCF7, 72 h, 72 h treatment
# [4] = Homo sapiens, A549, 72 h, 72 h treatment
# Sequence of CaV3.3 (Q9P0X4 whole entry): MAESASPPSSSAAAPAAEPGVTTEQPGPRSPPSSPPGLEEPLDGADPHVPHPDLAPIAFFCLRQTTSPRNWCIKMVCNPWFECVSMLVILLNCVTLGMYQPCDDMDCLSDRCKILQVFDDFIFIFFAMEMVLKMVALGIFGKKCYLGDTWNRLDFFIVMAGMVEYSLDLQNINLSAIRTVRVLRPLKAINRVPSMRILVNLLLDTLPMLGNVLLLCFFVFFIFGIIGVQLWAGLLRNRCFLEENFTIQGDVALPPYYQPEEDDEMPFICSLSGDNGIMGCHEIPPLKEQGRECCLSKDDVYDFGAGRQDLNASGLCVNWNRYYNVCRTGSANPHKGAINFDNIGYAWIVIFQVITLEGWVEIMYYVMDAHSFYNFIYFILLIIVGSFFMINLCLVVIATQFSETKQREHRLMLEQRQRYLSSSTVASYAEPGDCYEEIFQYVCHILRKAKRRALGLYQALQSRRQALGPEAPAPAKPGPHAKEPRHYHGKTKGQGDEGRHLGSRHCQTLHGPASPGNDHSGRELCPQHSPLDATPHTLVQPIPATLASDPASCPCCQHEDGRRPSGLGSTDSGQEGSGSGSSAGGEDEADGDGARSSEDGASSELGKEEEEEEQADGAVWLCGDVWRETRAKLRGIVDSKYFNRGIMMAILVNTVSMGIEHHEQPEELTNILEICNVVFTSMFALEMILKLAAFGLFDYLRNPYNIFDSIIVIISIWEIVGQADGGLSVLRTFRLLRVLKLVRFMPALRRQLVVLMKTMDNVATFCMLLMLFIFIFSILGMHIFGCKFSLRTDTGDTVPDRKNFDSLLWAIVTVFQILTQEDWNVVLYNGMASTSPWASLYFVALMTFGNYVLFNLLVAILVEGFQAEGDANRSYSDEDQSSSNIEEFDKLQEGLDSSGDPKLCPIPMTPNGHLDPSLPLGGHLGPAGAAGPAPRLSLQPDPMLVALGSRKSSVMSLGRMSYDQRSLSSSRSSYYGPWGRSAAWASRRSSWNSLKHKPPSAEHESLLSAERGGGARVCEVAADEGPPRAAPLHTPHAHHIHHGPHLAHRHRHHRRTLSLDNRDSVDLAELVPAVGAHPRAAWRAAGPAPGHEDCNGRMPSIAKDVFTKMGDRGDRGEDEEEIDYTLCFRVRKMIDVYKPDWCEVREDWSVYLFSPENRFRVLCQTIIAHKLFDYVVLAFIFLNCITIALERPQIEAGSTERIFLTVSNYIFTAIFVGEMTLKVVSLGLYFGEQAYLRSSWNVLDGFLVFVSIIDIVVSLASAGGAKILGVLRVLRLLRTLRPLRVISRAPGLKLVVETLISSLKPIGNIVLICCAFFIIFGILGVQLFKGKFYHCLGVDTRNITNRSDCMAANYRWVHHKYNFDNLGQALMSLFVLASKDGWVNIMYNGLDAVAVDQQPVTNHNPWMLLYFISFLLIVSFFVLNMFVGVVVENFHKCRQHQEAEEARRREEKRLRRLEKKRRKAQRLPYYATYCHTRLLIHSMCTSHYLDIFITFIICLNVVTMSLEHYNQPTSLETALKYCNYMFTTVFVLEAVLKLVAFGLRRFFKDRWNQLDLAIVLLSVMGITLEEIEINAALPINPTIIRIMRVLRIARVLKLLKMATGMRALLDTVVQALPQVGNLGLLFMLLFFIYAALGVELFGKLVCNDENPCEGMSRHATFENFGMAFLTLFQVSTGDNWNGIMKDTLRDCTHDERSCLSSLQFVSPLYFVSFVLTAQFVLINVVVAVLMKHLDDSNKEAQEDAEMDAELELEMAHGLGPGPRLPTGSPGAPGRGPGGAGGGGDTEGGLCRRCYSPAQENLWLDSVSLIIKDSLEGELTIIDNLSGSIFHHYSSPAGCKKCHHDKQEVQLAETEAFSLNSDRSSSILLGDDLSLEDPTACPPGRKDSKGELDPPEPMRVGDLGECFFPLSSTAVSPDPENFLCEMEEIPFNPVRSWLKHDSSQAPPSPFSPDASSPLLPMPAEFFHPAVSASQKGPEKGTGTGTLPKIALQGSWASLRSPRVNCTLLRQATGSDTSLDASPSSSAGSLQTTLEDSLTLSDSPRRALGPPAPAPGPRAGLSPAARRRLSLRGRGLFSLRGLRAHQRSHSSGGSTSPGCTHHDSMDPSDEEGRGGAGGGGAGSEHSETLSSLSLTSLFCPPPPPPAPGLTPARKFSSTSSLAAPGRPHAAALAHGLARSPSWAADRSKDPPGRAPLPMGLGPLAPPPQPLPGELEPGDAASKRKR
SMILES,less active at HVA CaVs than at CaV3.2 and CaV3.3 (CaV3.3; FLIPR) [fold],"IC50 (CaV3.3; IC50 CaV3.3 (LVA CaVs), FLIPR window current, n = 3) [µM]","IC50 (CaV3.3; IC50 of representative concentration-response curve, CaV3.3 window current, FLIPR, one separate experiment in quadruplicate (n = 4)) [µM]",IC50 (CaV1) [µM],reduced potency for CaV3.3 window current compared to DIM (CaV3.3; FLIPR) [fold],IC50 (CaV3.3; [1]) [µM],IC50 (CaV3.3; [2]) [µM],"viability at 50 µM (MCF-7 cells; Homo sapiens, 72 h treatment) [%]",IC50 (MCF-7 cells; [3]) [µM],"viability at 50 µM (A549 cells; Homo sapiens, 72 h treatment) [%]",IC50 (A549 cells; [4]) [µM],CaV3.3 window current potency better than at CaV3.1 and CaV3.2 (CaV3.3; FLIPR),CaV3.3 window current potency better than potency at HVA CaVs (CaV3.3; FLIPR) [fold],IC50 (MCF-7 cells; 72 h treatment) [µM],"IC50 (MCF-7 cells; Homo sapiens, MCF7, 24 h, 24 h treatment) [µM]",IC50 (A549 cells; 72 h treatment) [µM],"IC50 (A549 cells; Homo sapiens, A549, 24 h, 24 h treatment) [µM]","IC50 (A549 cells; Homo sapiens, A549, 48 h, 48 h treatment) [µM]"
"O=C(c1cn(Cc2ccccc2)c2ccccc12)c1cn(Cc2ccccc2)c2ccccc12 [IX, bis(1-benzyl-1H-indol-3-yl)methanone]",> 7,6.68 ± 0.79,5.27,48 ± 2.79,–,–,–,–,–,–,–,–,–,–,–,–,–,–
"O=C(c1c[nH]c2ccccc12)c1c[nH]c2ccccc12 [DIM-one, 3,3′-diindolylmethanone]",–,–,–,61 ± 3.99,4.3,9.07 ± 0.69,8.18,52.3 ± 3.12,42,81.3 ± 3,66,–,–,–,–,–,–,–
"c1ccc2c(Cc3c[nH]c4ccccc34)c[nH]c2c1 [DIM, 3,3′-diindolylmethane, reference compound]",–,–,–,68.6 ± 6.65,–,2.09 ± 0.43,2.77,3.65 ± 0.24,27,55.6 ± 1.13,47,~ 25 fold,> 27,–,–,–,–,–
O=C(c1c[nH]c2cc(Br)ccc12)c1c[nH]c2cc(Br)ccc12 [IV],–,–,–,38.8 ± 5.01,–,62.5 ± 4.1,–,6.35 ± 0.46,6,2.92 ± 0.29,3,–,–,6.1,9.8,3.5,8,4.7
